Key:
[1] = tested on: E. coli; assay: Growth of bacteria in LB broth, CFU over time; type: cell-based, Escherichia coli; settings: 37° C., Adk 20, 50, 100 μg/ml, ampicillin 100 μg/ml, FIG. 2
Method: (§1) To verify the antibacterial activity of the recombinant ADK protein obtained in Example 1, the effect of the ADK protein on the growth of gram-negative bacteria such as E. coli and P. aeruginosa and a gram-positive bacterium such as S. aureus was analyzed.
(§2) More specifically, 1×10^5 CFU of strains were put into a 10 ml LB broth, and an antibiotic (ampicillin) and the ADK protein were added respectively according to five conditions as follows (Group 1: LB broth media with 100 μg/ml ampicillin, Group 2: LB broth media with 20 μg/ml Adk, Group 3: LB broth media with 50 μg/ml Adk, Group 4: LB broth media with 100 μg/ml Adk, Group 5: Non-antibacterial agent LB broth media). The strains were cultured in a 37° C. shaking incubator, 100 μl aliquots of each group was taken at 3-hour intervals and diluted with an LB broth in predetermined ratios, followed by plating the resulting cells on an LB agar (Biobasic, Amherst, N.Y.) plate. The cells were cultured again in a 37° C. incubator overnight, and then CFU values over time were calculated by counting the number of colonies on the LB agar plate.

[2] = tested on: P. aeruginosa; assay: Growth of bacteria in LB broth, CFU over time; type: cell-based, Pseudomonas aeruginosa; settings: 37° C., Adk 20, 50, 100 μg/ml, ampicillin 100 μg/ml, FIG. 3
[3] = tested on: S. aureus; assay: Growth of bacteria in LB broth, CFU over time; type: cell-based, Staphylococcus aureus; settings: 37° C., Adk 20, 50, 100 μg/ml, ampicillin 100 μg/ml, FIG. 4
Method: as §1, §2

[4] = tested on: E. coli K1; assay: Sepsis animal model, survival rate; type: in vivo, BALB/c mice; settings: gentamicin 100 μg/kg intraperitoneally; FIG. 12
[5] = tested on: E. coli K1; assay: Sepsis animal model, serum analysis; type: in vivo, BALB/c mice; settings: 12 hours after sepsis induction; LAL assay kit; FIG. 15
Method: Twelve hours after sepsis induction, levels of inflammatory cytokines (TNF-α, IL-6, and IL-1β), AST, ALT, BUN, and endotoxins in sera isolated from mice were analyzed. Here, a cytokine concentration was measured using an ELISA kit (eBiosciences, San Diego, Calif.), and endotoxins were analyzed using an endotoxin detection kit (LAL assay kit, Thermo Fisher Scientific, Bremen, Germany).

Compound | growth of E. coli (CFU over time) [1] | growth of P. aeruginosa (CFU over time) [2] | growth of S. aureus (CFU over time) [3] | time after sepsis induction at which all mice were dead [4] [h] | amount of endotoxins in mouse sera [5]
CC1(C)S[C@@H]2[C@H](NC(=O)[C@H](N)c3ccccc3)C(=O)N2[C@H]1C(=O)O [ampicillin] | inhibited | inhibited | inhibited | – | –
gentamicin | – | – | – | 30 | a significant difference from the negative control (CON) was not observed

— patent US10543258B2, “Antibacterial composition containing ADK protein as active ingredient, or composition for preventing or treating sepsis” (priority 2014, dated 2020)
